Where a name gives a salt, the structure may show the parent alone.
Key:
human alpha2A receptors = target: T1, human alpha2A receptors (Homo sapiens, UniProt P08913); assay: cell-based
T1 sequence (P08913 1-465): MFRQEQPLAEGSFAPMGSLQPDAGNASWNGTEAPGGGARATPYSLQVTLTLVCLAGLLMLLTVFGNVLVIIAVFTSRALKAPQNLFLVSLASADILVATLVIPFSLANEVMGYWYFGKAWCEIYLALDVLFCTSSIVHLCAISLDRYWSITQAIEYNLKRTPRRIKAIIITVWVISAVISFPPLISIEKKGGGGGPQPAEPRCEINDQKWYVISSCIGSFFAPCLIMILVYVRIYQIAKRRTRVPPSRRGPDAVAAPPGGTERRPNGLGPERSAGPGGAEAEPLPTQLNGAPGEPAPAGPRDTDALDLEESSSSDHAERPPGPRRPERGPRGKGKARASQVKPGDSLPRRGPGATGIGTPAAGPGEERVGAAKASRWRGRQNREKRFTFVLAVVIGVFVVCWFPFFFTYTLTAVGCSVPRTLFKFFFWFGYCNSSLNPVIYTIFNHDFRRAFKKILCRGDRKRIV

human alpha2C receptors = target: T2, human alpha2C receptors (Homo sapiens, UniProt P18825); assay: Determination of alpha2C antagonistic activity in vitro (FLIPR calcium assay); conditions: for Kb: Alpha 2C Adrenaline Kb, Kb calculated from IC50 with the Cheng-Prusoff equation, adrenaline as agonist, CHO cells, human alpha2C
T2 sequence (P18825 1-462): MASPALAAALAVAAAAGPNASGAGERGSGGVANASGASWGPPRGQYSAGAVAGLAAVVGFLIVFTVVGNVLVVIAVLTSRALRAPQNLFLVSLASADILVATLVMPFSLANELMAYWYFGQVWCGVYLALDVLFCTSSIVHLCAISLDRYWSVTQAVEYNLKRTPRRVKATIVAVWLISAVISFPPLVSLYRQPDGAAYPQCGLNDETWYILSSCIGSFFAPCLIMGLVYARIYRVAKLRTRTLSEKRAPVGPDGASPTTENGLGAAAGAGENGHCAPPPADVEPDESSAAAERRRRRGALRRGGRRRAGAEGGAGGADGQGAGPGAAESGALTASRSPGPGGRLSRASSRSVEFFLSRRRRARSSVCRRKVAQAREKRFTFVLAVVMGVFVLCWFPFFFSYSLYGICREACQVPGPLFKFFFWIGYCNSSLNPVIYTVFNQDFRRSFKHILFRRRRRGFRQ
Description: Experiment 1: Determination of alpha2A and alpha2C Antagonistic Activity In Vitro
The growth medium was removed and the cells were incubated with the test compounds and the FLIPR Calcium 6 Assay reagent (Molecular Devices, CA, USA) for 2 h at 37° C. in dark. The test compounds (concentrations in cells 100 pM-10 μM) were dissolved in Probenecid-Ringer consisting of 150 mM NaCl, 3 mM KCl, 1.2 mM MgCl2, 1 mM CaCl2, 5 mM glucose, 20 mM HEPES and 2.5 mM probenecid (pH 7.4 adjusted with 1.0 M NaOH). […] All experiments were performed at 37° C. For agonism measurements the test compounds dissolved in Probenecid-Ringer were applied by FLIPR Tetra at 15 s time point. In order to determine antagonism, the cells were stimulated either with 100 nM adrenaline or noradrenaline and the test compounds were added to the cells 2 h before the experiment with the FLIPR Calcium 6 Assay reagent. […] Typically, there were four replicates at each concentration and six different dose levels. […] The minimum fluorescence value subtracted from the maximum value for each well was used in the calculations. ScreenWorks version 4.0 software was used for analyzing the results. Fitting of the antagonist dose-response results was performed with the free Hill equation and the IC50 values were fitted with IDBS XE software using model 200: y=(A+(B/(1+((x/C)̂D)))), where A is the curve maximum, B the curve minimum and C equals the EC50 value. D is slope factor (Hill). Kb was calculated with the Cheng-Prusoff equation Kb=A/((B/C)+1), where A is the IC50 of antagonist, B the concentration of agonist and C the EC50 of the agonist.

Structure (SMILES) | IC50 (human alpha2A receptors) [nM] | Kb (human alpha2A receptors) [nM] | IC50 (human alpha2C receptors) [nM] | Kb (human alpha2C receptors) [nM]
Cc1nc2ccc(F)cc2n1[C@H]1CCCN(C[C@H]2COc3ccccc3O2)C1 [example 83, 1-((S)-1-(((S)-2,3-Dihydrobenzo[b][1,4]dioxin-2-yl)methyl)piperidin-3-yl)-6-fluoro-2-methyl-1H-benzo[d]imidazole] | > 10000 | > 449 | < 0.1 | < 0.01
CCc1nc2ccc(F)cc2n1[C@H]1CCCN(C[C@H]2COc3ccccc3O2)C1 [example 84, 1-((S)-1-(((S)-2,3-Dihydrobenzo[b][1,4]dioxin-2-yl)methyl)piperidin-3-yl)-2-ethyl-6-fluoro-1H-benzo[d]imidazole] | 4330 | 195 | < 0.1 | < 0.01
CC(C)c1nc2ccc(F)cc2n1[C@H]1CCCN(C[C@H]2COc3ccccc3O2)C1 [example 85, 1-((S)-1-(((S)-2,3-Dihydrobenzo[b][1,4]dioxin-2-yl)methyl)piperidin-3-yl)-6-fluoro-2-isopropyl-1H-benzo[d]imidazole] | > 10000 | > 449 | 1260 | 127
O=c1[nH]c2ccc(F)cc2n1[C@H]1CCCN(C[C@H]2COc3ccccc3O2)C1 [example 86, 1-((S)-1-(((S)-2,3-Dihydrobenzo[b][1,4]dioxin-2-yl)methyl)piperidin-3-yl)-6-fluoro-1H-benzo[d]imidazol-2(3H)-one] | > 10000 | > 449 | < 0.1 | < 0.01
Fc1ccc2c(c1)ncn2[C@H]1CCCN(C[C@H]2COc3ccccc3O2)C1 [example 87, 1-((S)-1-(((S)-2,3-Dihydrobenzo[b][1,4]dioxin-2-yl)methyl)piperidin-3-yl)-5-fluoro-1H-benzo[d]imidazole] | > 10000 | > 449 | < 0.1 | < 0.01
O=c1[nH]c2cc(F)ccc2n1[C@H]1CCCN(C[C@H]2COc3ccccc3O2)C1 [example 88, 1-((S)-1-(((S)-2,3-Dihydrobenzo[b][1,4]dioxin-2-yl)methyl)piperidin-3-yl)-5-fluoro-1H-benzo[d]imidazol-2(3H)-one] | > 10000 | > 449 | < 0.1 | < 0.01
Clc1ccc2ncn([C@H]3CCCN(C[C@H]4COc5ccccc5O4)C3)c2c1 [example 89, 6-Chloro-1-((S)-1-(((S)-2,3-dihydrobenzo[b][1,4]dioxin-2-yl)methyl)piperidin-3-yl)-1H-benzo[d]imidazole] | 9460 | 425 | < 0.1 | < 0.01
Cc1nc2ccc(Cl)cc2n1[C@H]1CCCN(C[C@H]2COc3ccccc3O2)C1 [example 90, 6-Chloro-1-((S)-1-(((S)-2,3-dihydrobenzo[b][1,4]dioxin-2-yl)methyl)piperidin-3-yl)-2-methyl-1H-benzo[d]imidazole] | 11100 | 498 | < 0.1 | < 0.01
Clc1ccc2c(c1)ncn2[C@H]1CCCN(C[C@H]2COc3ccccc3O2)C1 [example 91, 5-Chloro-1-((S)-1-(((S)-2,3-dihydrobenzo[b][1,4]dioxin-2-yl)methyl)piperidin-3-yl)-1H-benzo[d]imidazole] | > 10000 | > 449 | < 0.1 | < 0.01
O=C1C2CCCC2C(=O)N1[C@H]1CCCN(C[C@H]2COc3ccccc3O2)C1 (stereo partly drawn) [example 92, 2-((S)-1-(((S)-2,3-Dihydrobenzo[b][1,4]dioxin-2-yl)methyl)piperidin-3-yl)tetrahydrocyclopenta[c]pyrrole-1,3(2H,3aH)-dione hydrochloride] | > 10000 | > 449 | 0.15 | 0.02
O=C1[C@H]2CCCC[C@H]2C(=O)N1[C@H]1CCCN(C[C@H]2COc3ccccc3O2)C1 [example 93, (3aR,7aS)-2-((S)-1-(((S)-2,3-Dihydrobenzo[b][1,4]dioxin-2-yl)methyl)piperidin-3-yl)hexahydro-1H-isoindole-1,3(2H)-dione hydrochloride] | > 10000 | > 449 | 0.091 | 0.009
O=C1C2=C(CCCC2)C(=O)N1[C@H]1CCCN(C[C@H]2COc3ccccc3O2)C1 [example 94, 2-((S)-1-(((S)-2,3-Dihydrobenzo[b][1,4]dioxin-2-yl)methyl)-piperidin-3-yl)-4,5,6,7-tetrahydro-1H-isoindole-1,3(2H)-dione hydrochloride] | > 10000 | > 449 | < 0.1 | < 0.01
O=C1C2CC2C(=O)N1[C@H]1CCCN(C[C@H]2COc3ccccc3O2)C1 (stereo partly drawn) [example 95, 3-((S)-1-(((S)-2,3-Dihydrobenzo[b][1,4]dioxin-2-yl)methyl)piperidin-3-yl)-3-azabicyclo[3.1.0]hexane-2,4-dione] | 9440 | 424 | 0.433 | 0.044
CCN1C(=O)CC(=O)N([C@H]2CCCN(C[C@H]3COc4ccccc4O3)C2)C1=O [example 96, 1-((S)-1-(((S)-2,3-Dihydrobenzo[b][1,4]dioxin-2-yl)methyl)-piperidin-3-yl)-3-ethylpyrimidine-2,4,6(1H,3H,5H)-trione] | > 10000 | > 449 | 15.1 | 1.52
CC1CCN([C@H]2CCCN(C[C@H]3COc4ccccc4O3)C2)C1=O (stereo partly drawn) [example 97, 1-((S)-1-(((S)-2,3-Dihydrobenzo[b][1,4]dioxin-2-yl)methyl)-piperidin-3-yl)-3-methylpyrrolidin-2-one] | > 10000 | > 449 | 1 | 0.1

The next lines start with the values.

IC50 (human alpha2A receptors) [nM] | Kb (human alpha2A receptors) [nM] | IC50 (human alpha2C receptors) [nM] | Kb (human alpha2C receptors) [nM] | Structure (SMILES)
> 10000 | > 449 | 2.02 | 0.203 | CC1(C)CCN([C@H]2CCCN(C[C@H]3COc4ccccc4O3)C2)C1=O [example 100, 1-((S)-1-(((S)-2,3-Dihydrobenzo[b][1,4]dioxin-2-yl)methyl)piperidin-3-yl)-3,3-dimethylpyrrolidin-2-one]
> 10000 | > 449 | 0.78 | 0.08 | CN1CCN([C@H]2CCCN(C[C@H]3COc4ccccc4O3)C2)C1=O [example 101, 1-((S)-1-(((S)-2,3-Dihydrobenzo[b][1,4]dioxin-2-yl)methyl)piperidin-3-yl)-3-methylimidazolidin-2-one]
> 10000 | > 449 | 3.17 | 0.32 | CN1CC(=O)N([C@H]2CCCN(C[C@H]3COc4ccccc4O3)C2)C1=O [example 103, 3-((S)-1-(((S)-2,3-Dihydrobenzo[b][1,4]dioxin-2-yl)methyl)piperidin-3-yl)-1-methylimidazolidine-2,4-dione]
> 10000 | > 449 | 10 | 1.01 | CC(C)N1CC(=O)N([C@H]2CCCN(C[C@H]3COc4ccccc4O3)C2)C1=O [example 104, 3-((S)-1-(((S)-2,3-Dihydrobenzo[b][1,4]dioxin-2-yl)methyl)piperidin-3-yl)-1-isopropylimidazolidine-2,4-dione]
> 10000 | > 449 | 3.27 | 0.33 | CCN1CC(=O)N([C@H]2CCCN(C[C@H]3COc4ccccc4O3)C2)C1=O [example 105, 3-((S)-1-(((S)-2,3-Dihydrobenzo[b][1,4]dioxin-2-yl)methyl)-piperidin-3-yl)-1-ethylimidazolidine-2,4-dione]
> 10000 | > 449 | 0.1 | 0.01 | O=C1CN(C2CCCC2)C(=O)N1[C@H]1CCCN(C[C@H]2COc3ccccc3O2)C1 [example 106, 1-Cyclopentyl-3-((S)-1-(((S)-2,3-dihydrobenzo[b][1,4]dioxin-2-yl)methyl)piperidin-3-yl)imidazolidine-2,4-dione]
> 10000 | > 449 | 0.284 | 0.029 | CC(C)CN1CC(=O)N([C@H]2CCCN(C[C@H]3COc4ccccc4O3)C2)C1=O [example 107, 3-((S)-1-(((S)-2,3-Dihydrobenzo[b][1,4]dioxin-2-yl)methyl)piperidin-3-yl)-1-isobutylimidazolidine-2,4-dione]
> 10000 | > 449 | 1.25 | 0.13 | O=C1CN(CC2CC2)C(=O)N1[C@H]1CCCN(C[C@H]2COc3ccccc3O2)C1 [example 108, 1-(Cyclopropylmethyl)-3-((S)-1-(((S)-2,3-dihydrobenzo[b][1,4]dioxin-2-yl)methyl)piperidin-3-yl)imidazolidine-2,4-dione]
